Reference: US9044427B2, “Compositions and methods for prevention and treatment of wounds” (ONCONOVA THERAPEUTICS, INC, priority 2010, dated 2015)
Where “and” joins values, the source holds several entries; their conditions need not be identical. Identical values can stand only once. Entries after “also recorded” stand apart in the source; their conditions may differ. Marks after values point to notes of the source that are not given here.

Test system: mouse model of cutaneous injury
Assay: Wound healing in skin, mouse model of cutaneous injury (skin punch)
Assay type: in vivo
Conditions: for CT50 (Days), wound half-closure time, Mean: linear regression
Procedure: Test substance ON 01210.Na Solution was evaluated for possible effects on wound healing in a mouse model of cutaneous injury. The test substance was administered subcutaneously (SC) in two dosing regimens: the first was 24 hours and 15 minutes before skin punch, and the second was 4 hours and 15 minutes before skin punch. Percent closure of the wound (%) was determined on days 1, 3, 5, 7, 9, 11, 13, 15, 17, 19, 21 and 22, and the half closure time (CT50) was then obtained. One-way ANOVA followed by Dunnett's test was used to determine significant difference between vehicle control and treated groups at individual time points. Significant differences are considered at P<0.05 level.
ON 01210.Na Solution was provided by Onconova Therapeutics Inc in a preformulated form. Test substance was administered subcutaneously (SC) in two dosing patterns, the first was 24 hours and 15 minutes before skin punch, and the second was 4 hours and 15 minutes before skin punch. The dosing time of vehicle (ON 01210.Na Placebo Solution) was given as the second pattern. The dosing volume was 10 mL/kg.
Animals: Male ICR mice weighing 24±2 g were provided by BioLasco Taiwan (under Charles River Laboratories Technology Licensee). Test animals were housed individually in a cage (29×18×13 cm) after skin injury through experiment. All animals were maintained in a controlled temperature (21-23° C.) and humidity (50%-70%) environment with 12 hours light/dark cycles for at least three days in MDS Pharma Services—Taiwan Laboratory prior to use. Free access to standard lab chow for Mice [MF-18 (Oriental Yeast Co., Ltd., Japan)] and reverse osmosis (RO) water was granted. All aspects of this work including housing, experimentation and disposal of animals were performed in general accordance with the Guide for the Care and Use of Laboratory Animals (National Academy Press, Washington, D.C., 1996).
Groups of 8 ICR male mice weighing 24±2 g were used. During the study, the tested animals were housed in individual cages. Under hexobarbital (90 mg/kg, IP) anesthesia, the shoulder and back region of each animal was shaved. A sharp punch (ID 12 mm) was applied to remove the skin including panniculus carnosus and adherent tissues. Test substance was administered subcutaneously in two dosing patterns, the first was 24 hours and 15 minutes before skin punch, and the second was 4 hours and 15 minutes before skin punch the dosing time of vehicle (ON 01210.Na Placebo Solution) was given as the second dosing pattern. The wound area, traced onto clear plastic sheets, was measured by use of an Image—ProPlus (Media Cybernetics, Version 4.5.0.29) on days 1, 3, 5, 7, 9, 11, 13, 15, 17, 19, 21 and 22. The percent closure of the wound (%) was calculated, and wound half-closure time (CT50) was analyzed by linear regression using Graph-Prism (Graph Software USA). One-way ANOVA followed by Dunnett's test was applied for comparison between the treated and vehicle groups at each measurement time point. Differences are considered statistically significant at P<0.05.
Test substance was administered subcutaneously (SC) in two dosing patterns, the first was 24 hours and 15 minutes before skin punch, and the second was 4 hours and 15 minutes before skin punch; the dosing time of vehicle (ON 01210.Na Placebo Solution) was given as the second pattern. The wound closure (%) and wound half-closure time (CT50) were determined. One-way ANOVA followed by Dunnett's test was applied for comparison between the treated and vehicle groups. *P<0.05, vs. vehicle control.

[1] = 500 mg/kg × 2 SC (−4 hr, −15 min), individual surviving mice N 1-6, sodium salt
[2] = 500 mg/kg × 2 SC (−4 hr, −15 min), individual surviving mice N 1-6
[3] = 500 mg/kg × 2 SC (−4 hr, −15 min before skin punch), mean of surviving animals, sodium salt
[4] = 500 mg/kg × 2 SC (−4 hr, −15 min before skin punch), mean of surviving animals
[5] = 500 mg/kg × 2 SC (−24 hr, −15 min), individual mice N 1-8
[6] = 500 mg/kg × 2 SC (−24 hr, −15 min), individual mice N 1-8, sodium salt
[7] = 500 mg/kg × 2 SC (−24 hr, −15 min before skin punch), group mean
[8] = 500 mg/kg × 2 SC (−24 hr, −15 min before skin punch), group mean, sodium salt

Compound: O=C([O-])c1ccc(/C=C/S(=O)(=O)Cc2ccc(Cl)cc2)cc1.[Na+] [ON 01210.Na Solution, (E)-4-carboxystyryl-4-chlorobenzylsulfone sodium salt]
- Effect on wound closure vs vehicle control (500 mg/kg SC, 4 hr and 15 min before skin punch, surviving animals, P<0.05 vs vehicle): significant increase in wound closure on days 13 and 15
- Effect on wound closure / wound healing vs vehicle control (500 mg/kg SC, 24 hours and 15 minutes before skin punch, P<0.05 vs vehicle, sodium salt): promoted significant increase in wound closure on days 3, 5, 7, 13, 15 and 17; also recorded: promoted wound healing with significant reduction in CT50 value
- The Closure of Wound (%), Individual Value, Day 1 (500 mg/kg × 2 SC (−4 hr, −15 min), individual mice N 1-8): 0.0%
- The Closure of Wound (%), Individual Value, Day 3 [1]: 27.9% and 13.0% and 31.4% and 13.4% and 40.5% and 11.7%
- The Closure of Wound (%), Individual Value, Day 5 [1]: 40.2% and 23.3% and 37.2% and 24.9% and 48.5% and 18.4%
- The Closure of Wound (%), Individual Value, Day 7 [1]: 48.0% and 32.9% and 41.9% and 36.2% and 62.4% and 34.6%
- The Closure of Wound (%), Individual Value, Day 9 [1]: 59.0% and 49.2% and 60.3% and 52.9% and 76.3% and 43.0%
- The Closure of Wound (%), Individual Value, Day 11 [1]: 65.3% and 68.7% and 73.5% and 77.1% and 79.6% and 66.1%
- The Closure of Wound (%), Individual Value, Day 13 [1]: 84.2% and 90.4% and 90.3% and 78.8% and 93.1% and 88.0%
- The Closure of Wound (%), Individual Value, Day 15 [1]: 93.4% and 94.6% and 97.2% and 100.0% (2×) and 97.6%
- The Closure of Wound (%), Individual Value, Day 17 [1]: 96.7% and 100.0% (5×)
- The Closure of Wound (%), Individual Value, Day 19 [2]: 100.0%
- The Closure of Wound (%), Individual Value, Day 21 [2]: 100.0%
- The Closure of Wound (%), Individual Value, Day 22 [2]: 100.0%
- CT50 (Days), Individual Value [1]: 8.0 days and 9.2 days and 7.7 days and 8.9 days and 5.8 days and 9.4 days
- Animal died (entry in individual wound-closure tables) (500 mg/kg × 2 SC (−4 hr, −15 min), mice N 7 and 8, Days 3-22, sodium salt): died and Died
- The Closure of Wound (%) Day 1, Mean (500 mg/kg × 2 SC (−4 hr, −15 min before skin punch), group mean): 0.0%
- The Closure of Wound (%) Day 3, Mean [3]: 23.0%
- The Closure of Wound (%) Day 5, Mean [4]: 32.1%
- The Closure of Wound (%) Day 7, Mean [4]: 42.7%
- The Closure of Wound (%) Day 9, Mean [4]: 56.8%
- The Closure of Wound (%) Day 11, Mean [4]: 71.7%
- The Closure of Wound (%) Day 13, Mean [3]: 87.5%
- The Closure of Wound (%) Day 15, Mean [3]: 97.1%
- The Closure of Wound (%) Day 17, Mean [4]: 99.4%
- The Closure of Wound (%) Day 19, Mean [4]: 100.0%
- The Closure of Wound (%) Day 21, Mean [4]: 100.0%
- The Closure of Wound (%) Day 22, Mean [4]: 100.0%
- CT50 (Days), wound half-closure time, Mean [3]: 8.2 ± 0.5 days and 8.2 days
- The Closure of Wound (%), Individual Value, Day 1 [5]: 0.0%
- The Closure of Wound (%), Individual Value, Day 3 [6]: 36.8% and 15.2% and 28.2% and 23.1% and 21.6% and 42.8% and 29.4% and 41.1%
- The Closure of Wound (%), Individual Value, Day 5 [6]: 51.5% and 35.7% and 39.1% and 45.1% and 37.7% and 35.6% and 40.9% and 44.4%
- The Closure of Wound (%), Individual Value, Day 7 [6]: 49.7% and 47.0% and 45.6% and 56.9% and 46.8% and 60.4% and 52.0% and 55.8%
- The Closure of Wound (%), Individual Value, Day 9 [6]: 74.1% and 60.1% and 54.4% and 63.6% and 54.1% and 79.4% and 64.0% and 69.1%
- The Closure of Wound (%), Individual Value, Day 11 [6]: 79.5% and 81.7% and 70.4% and 76.3% and 64.4% and 84.4% and 71.4% and 80.8%
- The Closure of Wound (%), Individual Value, Day 13 [6]: 84.4% and 90.6% and 83.7% and 89.6% and 85.8% and 95.8% and 80.7% and 95.6%
- The Closure of Wound (%), Individual Value, Day 15 [6]: 89.8% and 100.0% (5×) and 97.6% and 88.8%
- The Closure of Wound (%), Individual Value, Day 17 [5]: 100.0%
- The Closure of Wound (%), Individual Value, Day 19 [5]: 100.0%
- The Closure of Wound (%), Individual Value, Day 21 [5]: 100.0%
- The Closure of Wound (%), Individual Value, Day 22 [6]: 100% (2×) and 100.0% (6×)
- CT50 (Days), Individual Value [6]: 6.6 Days and 8.0 Days (2×) and 7.2 Days and 8.3 Days and 6.0 Days and 7.6 Days and 6.2 Days
- The Closure of Wound (%) Day 1, Mean [7]: 0.0%
- The Closure of Wound (%) Day 3, Mean [8]: 29.8%
- The Closure of Wound (%) Day 5, Mean [8]: 41.3%
- The Closure of Wound (%) Day 7, Mean [8]: 51.8%
- The Closure of Wound (%) Day 9, Mean [7]: 64.8%
- The Closure of Wound (%) Day 11, Mean [7]: 76.1%
- The Closure of Wound (%) Day 13, Mean [8]: 88.3%
- The Closure of Wound (%) Day 15, Mean [8]: 97.0%
- The Closure of Wound (%) Day 17, Mean [8]: 100.0%
- The Closure of Wound (%) Day 19, Mean [7]: 100.0%
- The Closure of Wound (%) Day 21, Mean [7]: 100.0%
- The Closure of Wound (%) Day 22, Mean [7]: 100.0%
- CT50 (Days), wound half-closure time, Mean [8]: 7.2 ± 0.3 days and 7.2 days
- Animals died (mortality) (500 mg/kg × 2 SC given 4 hr and 15 min before skin punch (interval 3 hr 45 min), mice, cause of death not known, sodium salt): two out of eight animals died; also recorded: (2/8 died)
- Wound healing, percentage of wound closure (FIG. 1) (pre-treated 24 hour or 4 hour prior to wound vs placebo): significant improvement in wound healing
